Results: patent publication US3989837A, “Pharmaceutical compositions” (Chinoin Gyogyszer-es Vegyeszeti Termekek Gyara RT, priority 1972, dated 1976)
“And” between values parts separate entries of the source, which are not always exact repeats. Equal entries are not always repeated.

Experiments:
rats [1] = experiment: Testing of ulcerogenic effect in rats (Table 5); format: in vivo, rat; details: 5 days
Protocol: Unstarved rats weighing 160-180 g. were used for the experiment. The animals were divided into groups of 20. The compounds were administered as 1% suspensions stabilized with methylcellulose, by the oral route, at a volume of 0.2 ml./100 g. Treatment was continued for 5 days (1 treatment/day), and was suspended on the 6th and 7th day. On the 8th experimental day the […] were killed by ether overdosage. After laparatomy the stomachs were removed, washed twice in water and thereafter dipped in formaline. An incision was made along the large curvature, then again rinced with water and spread on a PVC plate. The gastric mucosa is evaluated macroscopically by two methods:
1. The ulcer index was calculated. The animals were divided into groups on the ground of the diameter of the largest ulcer and the extent of the changes was scored as follows:
The number of animals in the individual groups was multiplied by the number of scores and the proucts of multiplications are added and the sum thus obtained is divided by the number of animals.
2. Ulcer counts were calculated. The number of ulcers was counted on each stomach and the total number of ulcers was divided by the number of animals. […] Changes found in the intestinates were evaluated as "all or naught" and expressed in per cent of the number of animals.

writhing = experiment: Analgesic effect, acetic acid writhing (Table 3); format: in vivo, mouse; details: male mice
Protocol: Male mice weighing 15-18 g. and starved for 16 hours were used for the experiments. The drug was given orally, the control mice obtained a drug-free suspension. After 2 and 4 hours (2^h and 4^h respectively) the animals were injected with […], acetic acid solution (0.1 ml. per mouse) intraperitoneally. Upon the effect of the injection the animals reacted in a few minutes with writhing. […] Comparison of the number of writhes in the control and the treated animals served as a basis of evaluation of drug effect. Significance was calculated by Student's t test, and efficiency of the drug was expressed as per cent. Each experiment was performed on a group of 12-16 animals.

mice = experiment: Toxicity on mice by oral administration, once daily for 7 days (Table 4); format: in vivo; details: male mice
Protocol: The experiments were performed on unstarved male mice of […]. body-weight.
The compound was administered in the form of 1% suspension stabilized with methylcellulose. […] The animals obtained the drug once daily over a period of 7 dyas, i.e. 168 hours. The number of deaths was registered each day. LD50 values were calculated according to Litchfield and Wilcoxon.

kaolin oedema = experiment: Kaolin oedema test (Table 1); format: in vivo, rat; set-up: oedema, treated: unit not given here; details: female rats
Protocol: The experiments were performed on female rats weighing 110-130 g. divided into groups of 10 animals. The rats were starved for 24 hours prior to the experiment. The test substance was administered orally, the controls obtained the suspending solution without the active ingredient. 1 hour following drug administration the animals were injected s.c. 0.1 ml. of a suspension of 5% kaolin into the foot pad. During the following period the inflammatory reaction is manifested by a swelling of the foot. The diameter of the foot of the treated and control animals was measured 2, 3.5 and 5 hours after s.c. injection of kaolin. The efficiency of the test compound was calculated from the difference of the diameter of the foot in the treated and control animals. Significance was calculated with Student's t test and the effect of the drug was expressed also as per cent.

rats [2] = experiment: Toxicity on rats after oral administration, 3 months (Table 2'); format: in vivo, rat; details: for Perished animals/total animals, Sum / Perished animals/total animals: male rats
Protocol: 10 animals were treated with the substance in question for 3 months. […] A dosage corresponding to 20 mg./kg. of Indomethacine was added during the first, that corresponding to 40 mg./kg. of Indomethacine during the second, and that corresponding to 60 mg./kg. of Indomethacine during the third month. The animals of the control group received suspending agent only.

[3] = oral 13.7 mg./kg., 2 h after kaolin
[4] = oral 13.7 mg./kg., 3.5 h after kaolin
[5] = oral 13.7 mg./kg., 5 h after kaolin
[6] = oral 34 mg./kg., 2 h after kaolin
[7] = oral 34 mg./kg., 3.5 h after kaolin
[8] = oral 34 mg./kg., 5 h after kaolin
[9] = oral 51 mg./kg., 2 h after kaolin
[10] = oral 51 mg./kg., 3.5 h after kaolin
[11] = oral 51 mg./kg., 5 h after kaolin

Compound: COc1ccc2c(c1)c(CC(=O)OCC(Cl)(Cl)Cl)c(C)n2C(=O)c1ccc(Cl)cc1 [Example 5, 1-(p-chlorobenzoyl)-2-methyl-5-methoxy-indol-3-yl-acetic-acid trichloroethyl ester]
- Deaths (rats [1]; oral 27.3 mg./kg.): 1/20
- Number of surviving animals (rats [1]; oral 27.3 mg./kg.): 19
- Per cent of animals exhibiting changes of intest. mucosa (rats [1]; oral 27.3 mg./kg.): 10.5 Per cent
- Ulcer number (rats [1]; oral 27.3 mg./kg.): 0
- Deaths (rats [1]; oral 54.7 mg./kg.): 5/20
- Number of surviving animals (rats [1]; oral 54.7 mg./kg.): 15
- Per cent of animals exhibiting changes of intest. mucosa (rats [1]; oral 54.7 mg./kg.): 80 Per cent
- Ulcer number (rats [1]; oral 54.7 mg./kg.): 0.27
- Analgesic effect (writhing; oral 5 mg./kg., 2 h): 29.0% and 20.7%
- number of writhes, treated (writhing; oral 5 mg./kg., 2 h): 28.0±9.5 and 41.1±12.2
- Analgesic effect (writhing; oral 5 mg./kg., 4 h): 18.6% and 20.1%
- number of writhes, treated (writhing; oral 5 mg./kg., 4 h): 32.1±12.4 and 41.4±12.6
- Analgesic effect (writhing; oral 17 mg./kg., 2 h): 60.8% and 51.4%
- Analgesic effect (writhing; oral 17 mg./kg., 4 h): 56.7% and 51.0%
- number of writhes, treated (writhing; oral 17 mg./kg., 4 h): 13.7±10.7 and 20.6±12.3
- Number of deaths/number of treated animals (mice; oral 1000 mg/kg, 24 h): 0/10
- Number of deaths/number of treated animals (mice; oral 1000 mg/kg, 48 h): 0/10
- Number of deaths/number of treated animals (mice; oral 1000 mg/kg, 72 h): 0/10
- Number of deaths/number of treated animals (mice; oral 1000 mg/kg, 96 h): 0/10
- Number of deaths/number of treated animals (mice; oral 1000 mg/kg, 120 h): 0/10
- Number of deaths/number of treated animals (mice; oral 1000 mg/kg, 144 h): 0/10
- Number of deaths/number of treated animals (mice; oral 1000 mg/kg, 168 h): 0/10
- Number of deaths/number of treated animals (mice; oral 1500 mg/kg, 24 h): 0/10
- Number of deaths/number of treated animals (mice; oral 1500 mg/kg, 48 h): 0/10
- Number of deaths/number of treated animals (mice; oral 1500 mg/kg, 72 h): 0/10
- Number of deaths/number of treated animals (mice; oral 1500 mg/kg, 96 h): 0/10
- Number of deaths/number of treated animals (mice; oral 1500 mg/kg, 120 h): 0/10
- Number of deaths/number of treated animals (mice; oral 1500 mg/kg, 144 h): 0/10
- Number of deaths/number of treated animals (mice; oral 1500 mg/kg, 168 h): 0/10
- Number of deaths/number of treated animals (mice; oral 2000 mg/kg, 24 h): 0/10
- Number of deaths/number of treated animals (mice; oral 2000 mg/kg, 48 h): 0/10
- Number of deaths/number of treated animals (mice; oral 2000 mg/kg, 72 h): 2/10
- Number of deaths/number of treated animals (mice; oral 2000 mg/kg, 96 h): 2/10
- Number of deaths/number of treated animals (mice; oral 2000 mg/kg, 120 h): 4/10
- Number of deaths/number of treated animals (mice; oral 2000 mg/kg, 144 h): 6/10
- Number of deaths/number of treated animals (mice; oral 2000 mg/kg, 168 h): 6/10
- Number of deaths/number of treated animals (mice; oral 2500 mg/kg, 24 h): 0/10
- Number of deaths/number of treated animals (mice; oral 2500 mg/kg, 48 h): 1/10
- Number of deaths/number of treated animals (mice; oral 2500 mg/kg, 72 h): 1/10
- Number of deaths/number of treated animals (mice; oral 2500 mg/kg, 96 h): 3/10
- Number of deaths/number of treated animals (mice; oral 2500 mg/kg, 120 h): 4/10
- Number of deaths/number of treated animals (mice; oral 2500 mg/kg, 144 h): 6/10
- Number of deaths/number of treated animals (mice; oral 2500 mg/kg, 168 h): 7/10
- Number of deaths/number of treated animals (mice; oral 3000 mg/kg, 24 h): 0/10
- Number of deaths/number of treated animals (mice; oral 3000 mg/kg, 48 h): 1/10
- Number of deaths/number of treated animals (mice; oral 3000 mg/kg, 72 h): 3/10
- Number of deaths/number of treated animals (mice; oral 3000 mg/kg, 96 h): 4/10
- Number of deaths/number of treated animals (mice; oral 3000 mg/kg, 120 h): 5/10
- Number of deaths/number of treated animals (mice; oral 3000 mg/kg, 144 h): 7/10
- Number of deaths/number of treated animals (mice; oral 3000 mg/kg, 168 h): 7/10
- Inhibition of kaolin oedema (kaolin oedema; [3]): 9.8% and 10.6%
- oedema, treated (kaolin oedema; [3]): 2.39±0.36 and 2.28±0.50
- Inhibition of kaolin oedema (kaolin oedema; [4]): 15.1% and 19.0%
- oedema, treated (kaolin oedema; [4]): 2.54±0.53 and 2.35±0.54
- Inhibition of kaolin oedema (kaolin oedema; [5]): 22.2% and 15.1%
- oedema, treated (kaolin oedema; [5]): 2.56±0.53 and 2.77±0.58
- Inhibition of kaolin oedema (kaolin oedema; [6]): 11.0% and 13.6%
- oedema, treated (kaolin oedema; [6]): 2.27±0.30 and 2.46±0.49
- Inhibition of kaolin oedema (kaolin oedema; [7]): 22.1%
- oedema, treated (kaolin oedema; [7]): 2.26±0.30 and 2.47±0.41
- Inhibition of kaolin oedema (kaolin oedema; [8]): 24.7% and 29.9%
- oedema, treated (kaolin oedema; [8]): 2.48±0.36 and 2.72±0.62
- Inhibition of kaolin oedema (kaolin oedema; [9]): 19.5%
- oedema, treated (kaolin oedema; [9]): 1.86±0.32
- Inhibition of kaolin oedema (kaolin oedema; [10]): 24.6%
- oedema, treated (kaolin oedema; [10]): 2.05±0.30
- Inhibition of kaolin oedema (kaolin oedema; [11]): 26.4%
- oedema, treated (kaolin oedema; [11]): 2.23±0.28
- Perished animals/total animals, Sum (rats [2]; oral 27.3 mg./kg., 1st month): 1/10
- Perished animals/total animals (rats [2]; oral 54.7 mg./kg., 2nd month): 1/9
- Perished animals/total animals, Sum (rats [2]; oral 54.7 mg./kg., through 2nd month): 2/10
- Perished animals/total animals (rats [2]; oral 80.0 mg./kg., 3rd month): 2/8
- Perished animals/total animals, Sum (rats [2]; oral 80.0 mg./kg., through 3rd month): 4/10
- toxicity compared with Indomethacine (rats [2]; rats (and mice), oral): far less toxic than Indomethacine not only on mice but also on rats
- perishment during the observation period compared with Indomethacine (rats [2]; rats, oral, observation period): the same as for Indomethacine
